Reference: the NIST ThermoML archive (doi:10.1021/je5010214)
± gives the expanded uncertainty stated by the source.

Details: Liquid, Vibrating tube method

CCCCO [butan-1-ol]
Details | mass density [kg/m3]
343.15 K, 44927 kPa | 804.186 ± 0.9
343.15 K, 47908 kPa | 806.033 ± 0.91
343.15 K, 50059 kPa | 807.349 ± 0.91
343.15 K, 52026 kPa | 808.534 ± 0.92
343.15 K, 59944 kPa | 813.181 ± 0.94
343.15 K, 61967 kPa | 814.212 ± 0.94
343.15 K, 65070 kPa | 815.911 ± 0.95
343.15 K, 66059 kPa | 816.518 ± 0.96
343.16 K, 34034 kPa | 797.101 ± 0.87
343.16 K, 54919 kPa | 810.24 ± 0.93
343.16 K, 57986 kPa | 812.021 ± 0.93
348.15 K, 88.8 kPa | 765.578 ± 0.81
348.15 K, 462.2 kPa | 765.945 ± 0.81
348.15 K, 859.8 kPa | 766.355 ± 0.81
348.15 K, 974.2 kPa | 766.465 ± 0.81
348.15 K, 1974.9 kPa | 767.461 ± 0.81
348.15 K, 3051.1 kPa | 768.513 ± 0.81
348.15 K, 5094 kPa | 770.529 ± 0.81
348.15 K, 10025 kPa | 775.087 ± 0.82
348.15 K, 14792 kPa | 779.258 ± 0.83
348.15 K, 20111 kPa | 783.649 ± 0.84
348.15 K, 22163 kPa | 785.27 ± 0.85
348.15 K, 28080 kPa | 789.8 ± 0.86
348.15 K, 30149 kPa | 791.333 ± 0.86
348.15 K, 32161 kPa | 792.797 ± 0.87
348.15 K, 33959 kPa | 793.985 ± 0.87
348.15 K, 35045 kPa | 794.751 ± 0.88
348.15 K, 37937 kPa | 796.729 ± 0.88
348.15 K, 40026 kPa | 798.192 ± 0.89
348.15 K, 42066 kPa | 799.57 ± 0.89
348.15 K, 47915 kPa | 803.304 ± 0.91
348.15 K, 49950 kPa | 804.611 ± 0.92
348.15 K, 52167 kPa | 805.991 ± 0.92
348.15 K, 55022 kPa | 807.759 ± 0.93
348.15 K, 57945 kPa | 809.531 ± 0.94
348.15 K, 60030 kPa | 810.761 ± 0.94
348.15 K, 64942 kPa | 813.608 ± 0.96
348.15 K, 66153 kPa | 814.319 ± 0.96
348.16 K, 291.7 kPa | 765.77 ± 0.81
348.16 K, 7050.2 kPa | 772.352 ± 0.82
348.16 K, 9003.2 kPa | 774.145 ± 0.82
348.16 K, 12187 kPa | 777.001 ± 0.83
348.16 K, 17899 kPa | 781.843 ± 0.84
348.16 K, 25100 kPa | 787.55 ± 0.85
348.16 K, 32942 kPa | 793.364 ± 0.87
348.16 K, 45051 kPa | 801.465 ± 0.9
348.16 K, 62063 kPa | 811.961 ± 0.95
353.15 K, 86.2 kPa | 760.995 ± 0.81
353.15 K, 336 kPa | 761.273 ± 0.81
353.15 K, 572.6 kPa | 761.533 ± 0.81
353.15 K, 926 kPa | 761.914 ± 0.81
353.15 K, 1016.4 kPa | 762.008 ± 0.81
353.15 K, 2992.1 kPa | 764.106 ± 0.81
353.15 K, 4963.9 kPa | 766.051 ± 0.81
353.15 K, 7000.9 kPa | 768.126 ± 0.82
353.15 K, 9062.3 kPa | 770.136 ± 0.82
353.15 K, 10005 kPa | 771.015 ± 0.82
353.15 K, 12128 kPa | 772.98 ± 0.83
353.15 K, 14954 kPa | 775.544 ± 0.83
353.15 K, 17977 kPa | 778.173 ± 0.84
353.15 K, 19937 kPa | 779.792 ± 0.84
353.15 K, 21894 kPa | 781.405 ± 0.85
353.15 K, 24908 kPa | 783.869 ± 0.85
353.15 K, 27850 kPa | 786.199 ± 0.86
353.15 K, 29936 kPa | 787.797 ± 0.86
353.15 K, 31876 kPa | 789.263 ± 0.87
353.15 K, 32961 kPa | 790.048 ± 0.87
353.15 K, 34945 kPa | 791.423 ± 0.88
353.15 K, 37913 kPa | 793.571 ± 0.89
353.15 K, 40143 kPa | 795.172 ± 0.89
353.15 K, 42067 kPa | 796.559 ± 0.9
353.15 K, 45002 kPa | 798.55 ± 0.9
353.15 K, 48029 kPa | 800.525 ± 0.91
353.15 K, 50145 kPa | 801.944 ± 0.92
353.15 K, 52082 kPa | 803.184 ± 0.92
353.15 K, 55132 kPa | 805.077 ± 0.93
353.15 K, 57980 kPa | 806.879 ± 0.94
353.15 K, 60098 kPa | 808.146 ± 0.95
353.15 K, 65063 kPa | 811.071 ± 0.96
353.16 K, 2113.4 kPa | 763.181 ± 0.81
353.16 K, 33964 kPa | 790.701 ± 0.88
353.16 K, 62043 kPa | 809.275 ± 0.95
353.16 K, 66024 kPa | 811.636 ± 0.96
358.15 K, 264.1 kPa | 755.935 ± 0.81
358.15 K, 508.4 kPa | 756.19 ± 0.81
358.15 K, 926.8 kPa | 756.64 ± 0.82
358.15 K, 1013.9 kPa | 756.732 ± 0.82
358.15 K, 3021.2 kPa | 758.947 ± 0.81
358.15 K, 4930 kPa | 760.98 ± 0.81
358.15 K, 10073 kPa | 766.29 ± 0.82
358.15 K, 12137 kPa | 768.259 ± 0.83
358.15 K, 14905 kPa | 770.903 ± 0.83
358.15 K, 17041 kPa | 772.871 ± 0.84
358.15 K, 17965 kPa | 773.738 ± 0.84
358.15 K, 22175 kPa | 777.415 ± 0.85
358.15 K, 25059 kPa | 779.849 ± 0.86
358.15 K, 28035 kPa | 782.278 ± 0.86
358.15 K, 30002 kPa | 783.844 ± 0.87
358.15 K, 31978 kPa | 785.37 ± 0.87
358.15 K, 32793 kPa | 786.01 ± 0.88
358.15 K, 33850 kPa | 786.716 ± 0.88
358.15 K, 35027 kPa | 787.554 ± 0.88
358.15 K, 37872 kPa | 789.731 ± 0.89
358.15 K, 40037 kPa | 791.31 ± 0.89
358.15 K, 42100 kPa | 792.749 ± 0.9
358.15 K, 47958 kPa | 796.761 ± 0.92
358.15 K, 50038 kPa | 798.154 ± 0.92
358.15 K, 52081 kPa | 799.474 ± 0.93
358.15 K, 55073 kPa | 801.393 ± 0.94
358.15 K, 57918 kPa | 803.161 ± 0.94
358.15 K, 60043 kPa | 804.453 ± 0.95
358.15 K, 62067 kPa | 805.674 ± 0.96
358.15 K, 64986 kPa | 807.407 ± 0.96
358.15 K, 66109 kPa | 808.067 ± 0.97
358.16 K, 95.1 kPa | 755.754 ± 0.81
358.16 K, 2083.9 kPa | 757.886 ± 0.81
358.16 K, 6993.5 kPa | 763.142 ± 0.82
358.16 K, 9030.2 kPa | 765.202 ± 0.82
358.16 K, 20162 kPa | 775.665 ± 0.84
358.16 K, 45054 kPa | 794.81 ± 0.91
363.15 K, 94 kPa | 752.456 ± 0.81
363.15 K, 334 kPa | 752.741 ± 0.81
363.15 K, 601.7 kPa | 753.061 ± 0.81
363.15 K, 892.9 kPa | 753.404 ± 0.81
363.15 K, 961.6 kPa | 753.487 ± 0.81
363.15 K, 1034.7 kPa | 753.567 ± 0.81
363.15 K, 1986 kPa | 754.594 ± 0.81
363.15 K, 2940.4 kPa | 755.648 ± 0.81
363.15 K, 4979.2 kPa | 757.84 ± 0.82
363.15 K, 9959.5 kPa | 762.855 ± 0.82
363.15 K, 11971 kPa | 764.806 ± 0.83
363.15 K, 14936 kPa | 767.534 ± 0.83
363.15 K, 17973 kPa | 770.255 ± 0.84
363.15 K, 19940 kPa | 771.991 ± 0.84
363.15 K, 24872 kPa | 776.146 ± 0.86
363.15 K, 27993 kPa | 778.673 ± 0.86
363.15 K, 30062 kPa | 780.285 ± 0.87
363.15 K, 31961 kPa | 781.745 ± 0.88
363.15 K, 33033 kPa | 782.563 ± 0.88
363.15 K, 34000 kPa | 783.178 ± 0.88
363.15 K, 35028 kPa | 783.945 ± 0.88
363.15 K, 37919 kPa | 786.081 ± 0.89
363.15 K, 39916 kPa | 787.488 ± 0.9
363.15 K, 42016 kPa | 788.986 ± 0.9
363.15 K, 47947 kPa | 793.03 ± 0.92
363.15 K, 50050 kPa | 794.458 ± 0.93
363.15 K, 52023 kPa | 795.718 ± 0.93
363.15 K, 54940 kPa | 797.589 ± 0.94
363.15 K, 57917 kPa | 799.479 ± 0.95
363.15 K, 59980 kPa | 800.724 ± 0.96
363.15 K, 62043 kPa | 802.008 ± 0.96
363.15 K, 64924 kPa | 803.734 ± 0.97
363.15 K, 66088 kPa | 804.418 ± 0.97
363.16 K, 6920.2 kPa | 759.821 ± 0.82
363.16 K, 8964.8 kPa | 761.886 ± 0.82
363.16 K, 21933 kPa | 773.696 ± 0.85
363.16 K, 44987 kPa | 791.029 ± 0.91
